Results taken from patent US12358948B2, “Neurotensinergic agonists and methods of using same preventing or treating pain” (priority 2019, dated 2025).
*1 amine or outer side, *2 acyl side, *3 side chain or, on linkers, in order; H or OH if unused. Where a SMILES comes first, the peptide text is derived from it. Bridges are numbered along the chain shown (N, C = ends). [ ]: non-standard residue; d: D form. ξ: configuration not given here. ξαMeNle(6-ylidene) = CC(CCCC=[*:3])(N[*:1])C(=O)[*:2]; Phe(4-CF3) = N[C@@H](Cc1ccc(C(F)(F)F)cc1)C(=O)O; Phe(4-tBu) = CC(C)(C)c1ccc(C[C@H](N)C(=O)O)cc1; Phe(3-Br) = N[C@@H](Cc1cccc(Br)c1)C(=O)O; Phe(3-Cl) = N[C@@H](Cc1cccc(Cl)c1)C(=O)O; Phe(4-Br) = N[C@@H](Cc1ccc(Br)cc1)C(=O)O; Phe(4-CN) = N#Cc1ccc(C[C@H](N)C(=O)O)cc1; Phe(4-Cl) = N[C@@H](Cc1ccc(Cl)cc1)C(=O)O; Phe(3-I) = N[C@@H](Cc1cccc(I)c1)C(=O)O; 2Nal = N[C@@H](Cc1ccc2ccccc2c1)C(=O)O; hTyr = N[C@@H](CCc1ccc(O)cc1)C(=O)O; Hpg = N[C@H](C(=O)O)c1ccc(O)cc1; AllylGly = C=CC[C@H](N)C(=O)O; Orn = NCCC[C@H](N)C(=O)O; Dab = NCC[C@H](N)C(=O)O; Dap = NC[C@H](N)C(=O)O

What was measured:
hNTS1 receptor = target: T1, hNTS1 receptor (Homo sapiens, UniProt P30989); test: Competitive radioligand binding assay on the hNTS1 receptor; settings: displacement of 125I-[Tyr3]-NT, membranes of CHO-K1 cells expressing hNTS1; read-out: IC50 NTS1
T1 construct: membranes prepared from them
How it was run: (§1)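 IC50 values came from one-site competition curves against ¹²⁵I-[Tyr³]-NT after 60 min at 25 °C (pH 7.5 Tris, 0.2% BSA), with analogues at 10⁻¹¹–10⁻⁴ M and nonspecific binding set by 10⁻⁵ M NT(8-13). hNTS1 used 15 µg CHO-K1 membranes with […] tracer; hNTS2 used 50 µg 1321N1 membranes with […] tracer.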

hNTS2 receptor = target: T2, hNTS2 receptor (Homo sapiens, UniProt O95665); test: Competitive radioligand binding assay on the hNTS2 receptor; settings: for IC50: displacement of 125I-[Tyr3]-NT, membranes of 1321N1 cells expressing hNTS2, read-out: IC50 NTS2 (converted); for Selectivity: ratio IC50 for NTS1 : IC50 for NTS2
T2 construct: membranes prepared from them
How it was run: as §1

T2 sequence (O95665 whole entry): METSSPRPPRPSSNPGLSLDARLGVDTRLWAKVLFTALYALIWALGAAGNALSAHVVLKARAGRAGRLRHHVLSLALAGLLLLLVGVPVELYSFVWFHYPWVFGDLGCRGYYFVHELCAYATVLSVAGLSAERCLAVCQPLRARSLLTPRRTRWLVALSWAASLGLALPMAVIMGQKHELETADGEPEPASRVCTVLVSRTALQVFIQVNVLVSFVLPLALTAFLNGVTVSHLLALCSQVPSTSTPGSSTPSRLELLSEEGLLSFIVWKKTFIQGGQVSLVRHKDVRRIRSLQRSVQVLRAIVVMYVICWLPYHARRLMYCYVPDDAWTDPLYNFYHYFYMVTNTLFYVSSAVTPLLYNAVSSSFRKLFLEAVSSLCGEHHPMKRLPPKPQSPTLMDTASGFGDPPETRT
T1 sequence (P30989 whole entry): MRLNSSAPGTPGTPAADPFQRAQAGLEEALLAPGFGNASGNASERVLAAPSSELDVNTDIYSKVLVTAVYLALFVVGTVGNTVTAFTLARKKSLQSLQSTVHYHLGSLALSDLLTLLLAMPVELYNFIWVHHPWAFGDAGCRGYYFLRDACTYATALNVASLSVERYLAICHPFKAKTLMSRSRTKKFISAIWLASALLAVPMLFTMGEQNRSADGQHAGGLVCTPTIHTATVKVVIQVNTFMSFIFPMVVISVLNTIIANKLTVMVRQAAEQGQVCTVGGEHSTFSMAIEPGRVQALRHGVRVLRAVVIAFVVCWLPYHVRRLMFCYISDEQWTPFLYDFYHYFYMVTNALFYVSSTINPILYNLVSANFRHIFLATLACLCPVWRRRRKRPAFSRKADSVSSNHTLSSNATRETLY

Compound	IC50 (hNTS1 receptor)	IC50 (hNTS2 receptor)	Selectivity (hNTS2 receptor)
CC(C)C[C@H](NC(=O)[C@H](Cc1ccc(O)cc1)NC(=O)[C@@H]1CC(=O)NCCCC[C@H](N)C(=O)N[C@@H](CCCCN)C(=O)N[C@@H](CCCCN)C(=O)N1)C(=O)O [compound 97, c[KKKD]YL] (H-KKKDYL-OH; lactam 1-4)	> 100000 nM	1020 nM	>98.4
CC(C)C[C@H](NC(=O)[C@H](Cc1ccc(O)cc1)NC(=O)[C@@H]1CCC(=O)NC[C@H](N)C(=O)N[C@@H](CCCCN)C(=O)N[C@@H](CCCCN)C(=O)N1)C(=O)O [compound 98, c[DapKKE]YL] (H-[Dap]KKEYL-OH; lactam 1-4)	> 100000 nM	8180 nM	>12.2
CC(C)C[C@H](NC(=O)[C@H](Cc1ccc(O)cc1)NC(=O)[C@@H]1CCC(=O)NCC[C@H](N)C(=O)N[C@@H](CCCCN)C(=O)N[C@@H](CCCCN)C(=O)N1)C(=O)O [compound 99, c[DabKKE]YL] (H-[Dab]KKEYL-OH; lactam 1-4)	> 100000 nM	11000 nM	>9
CC(C)C[C@H](NC(=O)[C@H](Cc1ccc(O)cc1)NC(=O)[C@@H]1CCC(=O)NCCC[C@H](N)C(=O)N[C@@H](CCCCN)C(=O)N[C@@H](CCCCN)C(=O)N1)C(=O)O [compound 100, c[OrnKKE]YL] (H-[Orn]KKEYL-OH; lactam 1-4)	> 100000 nM	4500 nM	>22
CC(C)C[C@H](NC(=O)[C@H](Cc1ccc(O)cc1)NC(=O)[C@@H]1CCC(=O)NCCCC[C@H](N)C(=O)N[C@@H](CCCCN)C(=O)N[C@@H](CCCCN)C(=O)N1)C(=O)O [compound 101, c[KKKE]YL] (H-KKKEYL-OH; lactam 1-4)	> 100000 nM	889 nM	>111
CC(C)C[C@H](NC(=O)[C@H](Cc1ccc(O)cc1)NC(=O)[C@@H]1CNC(=O)C[C@H](N)C(=O)N[C@@H](CCCCN)C(=O)N[C@@H](CCCCN)C(=O)N1)C(=O)O [compound 103, c[DKKDap]YL] (H-DKK[Dap]YL-OH; lactam 1-4)	> 100000 nM	9100 nM	>11.0
CC(C)C[C@H](NC(=O)[C@H](Cc1ccc(O)cc1)NC(=O)[C@@H]1CCNC(=O)CC[C@H](N)C(=O)N[C@@H](CCCCN)C(=O)N[C@@H](CCCCN)C(=O)N1)C(=O)O [compound 104, c[EKKDab]YL] (H-EKK[Dab]YL-OH; lactam 1-4)	> 100000 nM	16500 nM	>6.1
CC(C)C[C@H](NC(=O)[C@H](Cc1ccc(O)cc1)NC(=O)[C@@H]1CCNC(=O)C[C@H](N)C(=O)N[C@@H](CCCCN)C(=O)N[C@@H](CCCCN)C(=O)N1)C(=O)O [compound 105, c[DKKDab]YL] (H-DKK[Dab]YL-OH; lactam 1-4)	> 100000 nM	1450 nM	>67.0
CC(C)C[C@H](NC(=O)[C@H](Cc1ccc(C(C)(C)C)cc1)NC(=O)[C@@H]1CC=CC[C@H](N)C(=O)N[C@@H](CCCCN)C(=O)N[C@@H](CCCCN)C(=O)N1)C(=O)O [compound 110, c[G(All)KKG(All)]F(4-tbu)L] (H-[AllylGly]KK[AllylGly][Phe(4-tBu)]L-OH; staple 1-4)	> 100000 nM	40.2 nM	>2488
CC(C)C[C@H](NC(=O)[C@H](Cc1ccc(C(F)(F)F)cc1)NC(=O)[C@@H]1CC=CC[C@H](N)C(=O)N[C@@H](CCCCN)C(=O)N[C@@H](CCCCN)C(=O)N1)C(=O)O [compound 111, c[G(All)KKG(All)]F(4-CF3)L] (H-[AllylGly]KK[AllylGly][Phe(4-CF3)]L-OH; staple 1-4)	> 100000 nM	47.9 nM	>2087
CC(C)C[C@H](NC(=O)[C@H](Cc1ccc2ccccc2c1)NC(=O)[C@@H]1CC=CC[C@H](N)C(=O)N[C@@H](CCCCN)C(=O)N[C@@H](CCCCN)C(=O)N1)C(=O)O [compound 112, c[G(All)KKG(All)]A(naphtyl)L] (H-[AllylGly]KK[AllylGly][2Nal]L-OH; staple 1-4)	> 100000 nM	83.6 nM	>1196
CC(C)C[C@H](NC(=O)[C@H](Cc1cccc(Cl)c1)NC(=O)[C@@H]1CC=CC[C@H](N)C(=O)N[C@@H](CCCCN)C(=O)N[C@@H](CCCCN)C(=O)N1)C(=O)O [compound 113, c[G(All)KKG(All)]F(3-chloro)L] (H-[AllylGly]KK[AllylGly][Phe(3-Cl)]L-OH; staple 1-4)	> 100000 nM	48 nM	>2084
CC(C)C[C@H](NC(=O)[C@H](Cc1ccc(Cl)cc1)NC(=O)[C@@H]1CC=CC[C@H](N)C(=O)N[C@@H](CCCCN)C(=O)N[C@@H](CCCCN)C(=O)N1)C(=O)O [compound 114, c[G(All)KKG(All)]F(4-chloro)L] (H-[AllylGly]KK[AllylGly][Phe(4-Cl)]L-OH; staple 1-4)	> 100000 nM	40.6 nM	>2466
CC(C)C[C@H](NC(=O)[C@H](Cc1cccc(Br)c1)NC(=O)[C@@H]1CC=CC[C@H](N)C(=O)N[C@@H](CCCCN)C(=O)N[C@@H](CCCCN)C(=O)N1)C(=O)O [compound 115, c[G(All)KKG(All)]F(3-bromo)L] (H-[AllylGly]KK[AllylGly][Phe(3-Br)]L-OH; staple 1-4)	> 100000 nM	28.4 nM	>3523
CC(C)C[C@H](NC(=O)[C@H](Cc1cccc(I)c1)NC(=O)[C@@H]1CC=CC[C@H](N)C(=O)N[C@@H](CCCCN)C(=O)N[C@@H](CCCCN)C(=O)N1)C(=O)O [compound 117, c[G(All)KKG(All)]F(3-iodo)L] (H-[AllylGly]KK[AllylGly][Phe(3-I)]L-OH; staple 1-4)	> 100000 nM	32.3 nM	>3097
CC(C)C[C@H](NC(=O)[C@H](Cc1ccc(C#N)cc1)NC(=O)[C@@H]1CC=CC[C@H](N)C(=O)N[C@@H](CCCCN)C(=O)N[C@@H](CCCCN)C(=O)N1)C(=O)O [compound 118, c[G(All)KKG(All)]F(4-cyano)L] (H-[AllylGly]KK[AllylGly][Phe(4-CN)]L-OH; staple 1-4)	> 100000 nM	57.8 nM	>1729
CC(C)C[C@H](NC(=O)[C@@H](NC(=O)[C@@H]1CC=CC[C@H](N)C(=O)N[C@@H](CCCCN)C(=O)N[C@@H](CCCCN)C(=O)N1)c1ccc(O)cc1)C(=O)O [compound 125] (H-[AllylGly]KK[AllylGly][Hpg]L-OH; staple 1-4)	> 100000 nM	1800 nM	56
CC(C)C[C@H](NC(=O)[C@H](CCc1ccc(O)cc1)NC(=O)[C@@H]1CC=CC[C@H](N)C(=O)N[C@@H](CCCCN)C(=O)N[C@@H](CCCCN)C(=O)N1)C(=O)O [compound 126, c[G(All)KKG(All)]homoYL] (H-[AllylGly]KK[AllylGly][hTyr]L-OH; staple 1-4)	> 100000 nM	81.7 nM	1224
NCCCC[C@@H]1NC(=O)CCC=CC[C@@H](C(=O)N[C@@H](Cc2ccc(O)cc2)C(=O)N[C@@H](CC2CCCC2)C(=O)O)NC(=O)[C@H](CCCCN)NC1=O [compound 129, c[pK(pentenoyl)KG(All)]Y A(cyclopentyl)]	> 100000 nM	13.9 nM	7194
CC(C)C[C@H](NC(=O)[C@H](Cc1ccc(Br)cc1)NC(=O)C1(C)CCCC=CC[C@H](N)C(=O)N[C@@H](CCCCN)C(=O)N[C@@H](CCCCN)C(=O)N1)C(=O)O (stereo partly drawn) [compound 130, c[G(All)KKG(alpha-Me-(4-pentenyl))]F(4-bromo)L] (H-[AllylGly]KK[ξαMeNle(6-ylidene)][Phe(4-Br)]L-OH; staple 1-4)	> 100000 nM	10.2 nM	9843
CC(C)C[C@H](NC(=O)[C@H](Cc1ccc(Br)cc1)NC(=O)[C@@H]1CC=CCCC(=O)N[C@@H](CCCCN)C(=O)N[C@@H](CCCCN)C(=O)N1)C(=O)O [compound 131, c[K(pentenoyl)KG(All)](4-bromo)L]	> 100000 nM	27.4 nM	3650
CC(C)C[C@H](NC(=O)[C@H](Cc1ccc(O)cc1)NC(=O)C1(C)CCCC=CCCC(=O)N[C@@H](CCCCN)C(=O)N[C@@H](CCCCN)C(=O)N1)C(=O)O (stereo partly drawn) [compound 132, c[K(Pentenoyl)KG(alpha-Me-(4-pentenyl))]YL]	> 100000 nM	136 nM	733
NCCCC[C@@H]1NC(=O)CCC=CC[C@@H](C(=O)N[C@@H](Cc2ccc(Br)cc2)C(=O)N[C@@H](CC2CCCC2)C(=O)O)NC(=O)[C@H](CCCCN)NC1=O [compound 134, cK([Pentenoyl)KG(All)]F(4-bromo)A (cyclopentyl)]	> 100000 nM	17.7 nM	5650
CC1(C(=O)N[C@@H](Cc2ccc(O)cc2)C(=O)N[C@@H](CC2CCCC2)C(=O)O)CCCC=CCCC(=O)N[C@@H](CCCCN)C(=O)N[C@@H](CCCCN)C(=O)N1 (stereo partly drawn) [compound 135, c[K(Pentenoyl)KG(alpha-Me-(4-pentenyl))]YA(cyclopentyl)]	> 100000 nM	45.9 nM	2179
CC(C)C[C@H](NC(=O)[C@H](Cc1ccc(Br)cc1)NC(=O)C1(C)CCCC=CCCC(=O)N[C@@H](CCCCN)C(=O)N[C@@H](CCCCN)C(=O)N1)C(=O)O (stereo partly drawn) [compound 136, c[PentenoylKKG(alpha-Me-(4-pentenyl))]F(4-bromo)L]	> 100000 nM	37.7 nM	2653
CC1(C(=O)N[C@@H](Cc2ccc(Br)cc2)C(=O)N[C@@H](CC2CCCC2)C(=O)O)CCCC=CCCC(=O)N[C@@H](CCCCN)C(=O)N[C@@H](CCCCN)C(=O)N1 (stereo partly drawn) [compound 137, c[K(Pentenoyl)KG(alpha-Me-(4-pentenyl))]F(4-bromo)A (cyclopentyl)]	> 100000 nM	9.6 nM	10428
